Experimental data from a compilation of properties of binary mixtures (doi:10.1021/je300622r).

Test: xn = mol fraction of the nth substance listed
Settings: 101 kPa

CCOS(=O)(=O)[O-].CC[n+]1ccn(C)c1 + O
viscosity [mPa·s]
Settings | 283.15 K | 293.15 K | 303.15 K | 313.15 K | 323.15 K | 333.15 K | 343.15 K
x2 = 0.0023 | 242.3 | – | 81 | 52.62 | 36.24 | 26.16 | –
x2 = 0.1225 | 171.3 | – | 62.11 | 41.51 | 29.17 | 21.46 | 16.37
x2 = 0.1966 | – | 81.3 | 52.09 | 35.42 | 25.3 | 18.81 | –
x2 = 0.427 | 62.49 | 40.03 | 27.26 | 19.53 | – | 11.24 | –
x2 = 0.6124 | – | 21.82 | 15.38 | 11.33 | 8.663 | 6.824 | 5.518
x2 = 0.798 | 14.52 | 10.01 | 7.24 | 5.453 | 4.246 | 3.402 | 2.791
x2 = 0.8983 | 6.801 | 4.853 | 3.618 | 2.793 | 2.221 | 1.813 | 1.518

CC[n+]1ccn(C)c1.COS(=O)(=O)[O-] + O
viscosity [mPa·s]
Settings | 278.15 K | 288.15 K | 298.15 K | 308.15 K | 318.15 K | 328.15 K | 338.15 K
x2 = 0.0023 | 246.3 | – | – | 54.77 | – | – | 20.53
x2 = 0.0887 | 226 | 129.2 | – | 53.07 | 37.01 | 26.98 | 20.42
x2 = 0.2235 | 164.6 | 97.7 | 62.41 | – | 30.1 | 22.43 | 17.93
x2 = 0.4163 | 81.88 | 51.53 | 34.54 | – | 17.94 | 13.72 | –
x2 = 0.6106 | 36.75 | 24.28 | 16.97 | 12.4 | 9.404 | 7.362 | –
x2 = 0.7999 | 14.47 | 9.971 | 7.21 | 5.427 | 4.222 | 3.378 | 2.767
x2 = 0.8948 | 6.791 | – | 3.635 | – | 2.247 | 1.836 | 1.534
